Test results: patent US11174286B2, “Inhibitors of NF κ-B activity for treatment of diseases and disorders” (priority 2014, dated 2021)
Non-standard residues stand in square brackets, D forms with d. No end group written: not given here.

Experiments:
[1] = system: p65 subunit of NF κB; experiment: Western blot for p65 (NF κB) phosphorylation in SiHa cells; type: cell-based; settings: Western blot (FIG. 4)
[2] = system: oral cancer cell line AW 13516; experiment: Cell cycle analysis by flow cytometry (propidium iodide); type: cell-based
Experimental: Cell cycle analysis was performed in oral cancer cell line AW 13516 after treatment with TGF-β alone, peptide alone or in combination. Cell cycle analysis was carried out using flow cytometry (Guava Technologies) using reagent kits provided by the instrument maker. The samples were prepared after propidium iodide staining and flow cytometric analysis was performed. TGF-β causes G1 arrest in cells as expected. The disclosed peptides in contrast markedly shortened the G1 phase and prolonged the S-phase, promoting a more faithful synthesis of DNA prior to cell division. Thus, the disclosed peptides have effects which differ from the effects of growth factors.

[3] = system: chemically induced tumor in hamster cheek; experiment: DMBA-induced oral tumor in hamster buccal pouch, topical peptide gel; type: in vivo, Syrian hamsters; settings: for histology of DMBA-treated tissue after peptide treatment: hamster cheek, FIG. 6C
Experimental: A peptide inhibitor of NF κB activity disclosed herein was tested for treatment of induced oral tumors. Male Syrian hamsters aged 8 to 10 weeks weighing between 100 and 110 g were used. The animals were fed a standard pellet diet and water ad libitum, and were maintained in accordance with applicable ethical and institutional guidelines. The animals were randomized into 10 groups of 8 animals each, and the right buccal pouches of hamsters in groups 1-5 were painted with 0.5% 7,12-dimethylbenz[a]anthracene (DMBA) in liquid paraffin three times a week for 12 weeks.
Mucoadhesive gels containing peptides were prepared by slowly adding Noveon AA1 (0.675% w/w) and Carbopol 971P NF (0.788% w/w) to purified water. The mixture was stirred at 1,025 rpm for one hour to allow full rehydration. Then 0.9% w/w glycerine, 2-phenoxyethanol, benzyl alcohol, and EDTA were added, followed by mixing at 875 rpm for one hour at room temperature. Finally, the desired peptide was added to the gel, and the gel mixed at 875 rpm for one hour to homogenize the gel (Kavitha et al., Biochimie 102:56-67 (2014); Mallery et al., Pharm Res. 24(4):728-737 (2007)).
Hamsters in Group 1 received no further treatment. For hamsters in Groups 2 and 3, peptide gel was applied topically to the right buccal pouches of the hamsters from the 12th to the 18th week daily at concentrations of 10 microgram/ml (2.35 microgram dosage of peptide per application) and 100 microgram/ml (23.5 microgram dosage of peptide per application) respectively. Another group of animals painted with liquid paraffin alone served as control. The experiment was terminated after 18 weeks and all animals were sacrificed by cervical dislocation after an overnight fast.

[4] = system: human dermal fibroblasts; experiment: Gene microarray analysis of gene expression; type: cell-based; settings: 1.0 micromolar peptide
Source text: (§1) NF κB inhibitor peptide SEQ ID NO: 010 down-regulates expression of genes known to be associated with the pathobiological action of NF κB and TNF α. […] The upregulation of certain target genes by the transcription factor NF κB is a major contributory factor in diseases and disorders attributed to the activation of NF κB. The downregulation of these genes by the NF κB inhibitor peptides can be expected to provide prophylaxis and therapy for such disorders. (The downregulation of some of these genes was confirmed in vivo in a study to examine the efficacy of NF κB inhibitor peptide, SEQ ID NO: 010.) Certain genes were also tested in a rodent squamous cell carcinoma model, by PCR and by immunoblots (mRNA levels were monitored by PCR and the corresponding protein levels were monitored by immunoblots).

[5] = In vivo study confirming gene downregulation
Source text: as §1

[6] = system: carrageenan-induced inflammation in rat paw; experiment: Carrageenan-induced paw edema (plethysmometer); type: in vivo, albino rats
Source text: INFLAMMATORY DISEASES AND FIBROTIC DISEASES: NF-κB is a prototypical proinflammatory signaling pathway, based on the activation of NF-κB by proinflammatory cytokines such as interleukin 1 (IL-1) and tumor necrosis factor a (TNF-α), and the subsequent role of NF-κB in the expression of other proinflammatory genes including cytokines, chemokines, and adhesion molecules. Inhibition of NF-κB can be expected to result in amelioration of inflammation. This was confirmed experimentally using peptide SEQ ID NO:042 in a standard model of carrageenan-induced inflammation in rat paw. This method measures acute inflammation induced by injection of carrageenan (Sakat et al., Inflammation 37(1):1-9 (2014)) and is used extensively to study antiinflammatory properties of drugs. Carrageenan is known to activate NF-κB (Bhattacharyya et al., Mediators of Inflammation, Vol. 2013, Article ID 397642; Bhattacharyya et al., American Journal of Physiology 301(3):G475-G486 (2011); Ellis et al., Ann. Rheum. Dis. 59:303-307 (2000); Pierce et al., J. Biol. Chem. 272:21096-21103 (1997)). Example 6 and FIG. 11 show the high efficacy of peptide SEQ ID NO:042 in alleviating edema and inflammation. […] Treatment of inflammation requires the subsidence of TNF-α and NF-κB pathways, which are part of the action of the disclosed peptides.
Groups (n=6) of healthy albino rats were injected in the paw with 3 mg carrageenan alone in phosphate buffered saline (PBS). […] As inflammation became obvious (15 min) in carrageenan-treated animals, test animals were injected with 70 nanogram of peptide SEQ ID NO:001, or peptide SEQ ID NO:042 in PBS. A plethysmometer was used to measure paw edema at 0, 0.5, 1.0, 2.0, 3.0, 6.0, 12.0, and 24 hours after injections. […] In contrast, animals not receiving peptide continued to show significant inflammation at all time points.

[7] = system: carrageenan-induced hyperalgesia in rat paw; experiment: Carrageenan-induced hyperalgesia in rat paw (modified Randell-Selitto paw withdrawal method); type: in vivo, albino rats; settings: 3 mg carrageenan, 70 nanogram peptide
Experimental: To establish the efficacy of the disclosed peptide inhibitors of NF-κB activity in analgesia, hyperalgesia was induced in rat paws with injections of carrageenan. The experiment is as described in Example 5. Injection of carrageenan in a hind paw of rats produced severe hyperalgesia. […] Only the results with peptide SEQ ID NO:042 are shown here.
The ability of the disclosed peptides to affect nociception was determined using a modification of the Randell-Selitto paw withdrawal method. Groups (n=6) of healthy albino rats were injected in the paw with 3 mg carrageenan alone in phosphate buffered saline (PBS). […] As inflammation became obvious (15 min) in carrageenan-treated animals, test animals were injected with 70 nanogram of peptide SEQ ID NO:001, or peptide SEQ ID NO:042 in PBS. The animals are allowed to walk on a metal grid before and after injecting the drugs and the observations were noted. The scoring system was based on normal gait=1, marked limping=0.5, and three legged gait=0. The scores are transformed into percent analgesia and subjected to statistical analysis. The two peptides gave very similar results. The results shown in FIG. 10 are from animals treated with peptide SEQ ID NO:042.

[8] = system: smad2; experiment: Phospho-Smad2 sandwich ELISA in HepG2 cells; type: cell-based; settings: HepG2 cells (TBRII and TBRI present)
Experimental: TGF-β signaling requires both receptors.
(§2) Phosphorylation of smad2 was determined by Enzyme-Linked Immunosorbent Assay (ELISA) using a kit obtained from a commercial source. The Phospho-Smad2 Sandwich ELISA Kit is a solid phase sandwich enzyme-linked immunosorbent assay (ELISA) that recognizes endogenous levels of phospho-Smad2 (Ser465/467) and Smad3 (Ser423/425) proteins. A Smad2/3 Mouse Antibody has been coated on the microwells. After incubation with cell lysates, Smad2/3 proteins (phospho and nonphospho) are captured by the coated antibody. Following extensive washing, a Phospho-Smad2 (Ser465/467)/Smad3 (Ser423/425) Detection Antibody is added to detect captured phospho-Smad2 (Ser465/467) and phospho-Smad3 (Ser423/425) proteins. Anti-rabbit IgG, HRP-linked Antibody is then used to recognize the bound detection antibody. HRP substrate, TMB, is added to develop color. The magnitude of the absorbance for this developed color is proportional to the quantity of phospho-Smad2 (Ser465/467) and phospho-Smad3 (Ser423/425) proteins.

[9] = system: smad2; experiment: Phospho-Smad2 sandwich ELISA in MCF-7 cells (lack functional TBRII); type: cell-based; settings: for phosphorylation of smad2: MCF-7 cells (do not express TBRII)
Experimental: as §2

[10] = system: NF κB; experiment: NF κB luciferase reporter assay (dual luciferase) in transfected SiHa cells; type: cell-based; settings: 24 hours of treatment
Experimental: SiHa cells (ATCC HTB-35) were seeded in the wells of a 96 well plate at 25,000 cells/well. The cells were transfected with the respective luciferase construct (p-SBE4, p-ARE-Luc in combination with FAST-1, p-NF κB) using Lipofectamine 2000 reagent (Invitrogen Technologies Inc.), as per the manufacturer's instructions. 18 hours post transfection; the cells were subjected to the respective treatments such as TGF-β, TNF-α, and the peptides. After 24 hours of treatment, the plates were removed from the incubator; medium from the cells was discarded. The wells were filled with 50 μl of PLB (passive lysis buffer) provided along with the Promega dual luciferase assay kit. The luciferase assay was performed as per the supplier's instruction manual, after transferring the lysates to a white plate for luminescence measurements. Expression of luciferase, and measurement of the resulting luminescence, thus provides a measurement of the extent of expression of NF-κB.
As per the data in FIG. 2, the disclosed peptides inhibit TNF-α-activation of NF-κB. As per the data in FIG. 3, the disclosed peptide LFAP[D]EA (SEQ ID NO:013) inhibits both TNF-α-induced and constitutive activation of NF-κB. The ratio between the firely/renilla luciferase was used to compare TNF-α induced activation of NF-κB over constitutive NF-κB activity.

Molecule: TWSPEL [SEQ ID NO:017]
- inhibition of phosphorylation of the p65 subunit of NF κB [1]: inhibition of phosphorylation

Molecule: LIAPEA [SEQ ID NO:061]
- % CELLS IN G1 Phase [2]: 60.05%
- % CELLS IN Go Phase [2]: 2.33%
- % CELLS IN M Phase [2]: 18.59%
- % CELLS IN S Phase [2]: 19.03%

Molecule: LWAEAK [SEQ ID NO:008]
- inhibition of phosphorylation of the p65 subunit of NF κB [1]: inhibition of phosphorylation

Molecule: NVAENA [SEQ ID NO:010]
- histology of DMBA-treated tissue after peptide treatment [3]: histology is closer to normal histology after treatment
- expression of genes associated with the pathobiological action of NF κB and TNF α [4]: down-regulates
- downregulation of some of these genes in vivo [5]: confirmed

Molecule: YMAPEV [SEQ ID NO:001]
- paw edema pattern compared with peptide SEQ ID NO:042 ([6]; rat paw, 70 nanogram peptide, 0 to 24 hours): nearly identical patterns
- nociception (hyperalgesia) [7]: markedly ameliorated nociception

Molecule: LIANAK [SEQ ID NO:060]
- phosphorylation of smad2 [8]: induce phosphorylation
- phosphorylation of smad2 [9]: causing the phosphorylation of smad2

Molecule: TGF-β
- phosphorylation of smad2 [8]: induce phosphorylation
- % CELLS IN G1 Phase [2]: 79.83%
- % CELLS IN Go Phase [2]: 8.32%
- % CELLS IN M Phase [2]: 8.23%
- % CELLS IN S Phase [2]: 3.62%
- phosphorylation of smad2 [9]: do not respond

Molecule: LFAP[D]EA (LFAP[dE]A) [SEQ ID NO:013]
- inhibition of constitutive activation of NF-κB ([10]; Renilla luciferase): inhibits
- inhibition of TNF-α-induced activation of NF-κB ([10]; firefly luciferase): inhibits
- % CELLS IN G1 Phase [2]: 62.05%
- % CELLS IN Go Phase [2]: 2.87%
- % CELLS IN M Phase [2]: 14.86%
- % CELLS IN S Phase [2]: 20.21%

Molecule: LIAP[D]EA (LIAP[dE]A) [SEQ ID NO:014]
- % CELLS IN G1 Phase [2]: 62.69%
- % CELLS IN Go Phase [2]: 3.19%
- % CELLS IN M Phase [2]: 13.52%
- % CELLS IN S Phase [2]: 19.78%

Molecule: TWAPES [SEQ ID NO:016]
- inhibition of phosphorylation of the p65 subunit of NF κB [1]: inhibition of phosphorylation

Molecule: SEQ ID NO:057: peptide of FIG. 8B (SEQ ID NOS:041 through 069), disclosed in U.S. Pat. Nos. 5,661,127, 5,780,436 and 6,638,912; sequence not printed (LIAGEG)
- % CELLS IN G1 Phase [2]: 52.59%
- % CELLS IN Go Phase [2]: 14.59%
- % CELLS IN M Phase [2]: 11.18%
- % CELLS IN S Phase [2]: 21.63%

Molecule: TNWAEN [SEQ ID NO:015]
- inhibition of phosphorylation of the p65 subunit of NF κB [1]: inhibition of phosphorylation

Molecule: ANVAENA [SEQ ID NO:042]
- histology of DMBA-treated tissue after peptide treatment [3]: an effect at the microscopic level
- tumor growth in hamster cheek ([3]; topical, six weeks, 100 microgram/ml (23.5 microgram per application), after DMBA): marked inhibition of tumor growth
- % CELLS IN G1 Phase [2]: 62.73%
- % CELLS IN Go Phase [2]: 2.02%
- % CELLS IN M Phase [2]: 19.10%
- % CELLS IN S Phase [2]: 16.14%
- anti-inflammatory efficacy relative to that reported for celecoxib ([6]; compared with literature value for celecoxib): approximately 103 times
- edema and inflammation at 2 h ([6]; rat paw, 3 mg carrageenan, 70 nanogram peptide, 2 h): significant decrease in edema and inflammation
- inflammation by 3.0 h ([6]; rat paw, 3 mg carrageenan, 70 nanogram peptide, 3.0 h): subsided almost completely
- inflammation up to 24 h post injection ([6]; rat paw, 3 mg carrageenan, 70 nanogram peptide, up to 24 h): no inflammation was noted
- nociception (hyperalgesia) [7]: markedly ameliorated nociception

Molecule: NC(=O)c1ccc(-c2nc(-c3ccc4c(c3)OCO4)c(-c3ccccn3)[nH]2)cc1 [SB431542, 4-[4-(1,3-benzodioxol-5-yl)-5-(2-pyridinyl)-1H-imidazol-2-yl]benzamide, reference compound]
- effect on peptide-induced smad2 phosphorylation ([9]; MCF-7 cells, with peptide LIANAK): did not prevent smad2 phosphorylation
